# Assay results reported in patent US8759499B2, “Lipids for transfection of Eukaryotic cells” (Molecular Transfer, Inc., priority 2005, dated 2014).
# Ends that are not written are not given here.
# Tested on: CHO-K1, NIH3T3, A549, Cos-7 and BE(2)C
# Experiment: Transfection with β-galactosidase reporter plasmid pCMV•SPORT-β-gal, "before" and "after" peptide protocols, β-gal activity (ONPG, OD 405)
# Assay type: cell-based
# Conditions: FIG. 1-5
# Experimental: Transfection of CHO-K1, NIH3T3, A549, Cos-7 and BE(2)C with β-galactosidase reporter plasmid pCMV•SPORT-β-gal was carried out as follows:
# Cells were plated in a 96-well plates with 100 μl of media containing 10% fetal calf serum the day before transfection such that a desired confluency (70%-95%) was achieved. The following day a transfection agent that includes a liposomal composition of the lipid DMTS (Dimyrstyl-tetrahydroxy-spermine) and DOPE (2:1 DMTS:DOPE) and DNA were mixed in Opti-MEM to form DNA/lipid complexes. Complexes were formed by adding various amounts of lipids (0.1 to 0.35 μl) to 100 μl of Opti-MEM. DNA (100 ng) was added to 100 μl Opti-MEM. The DNA and lipid solutions were then mixed to form DNA lipid complexes. The complexes were incubated for at least 15 minutes after which added to the DNA lipid complexes, was 20 μl of various amounts of a peptide having the sequence of a Prototypical Avian reovirus fusogenic peptide provided herein, as follows:
# and incubated for 15 minutes to form a DNA/lipid/peptide complex. […] Total activity was determined by reading the OD at 405 using Bio-Rad Benchmark Microplate Spectrophotometer. […]
# were added to the DNA mixture and incubated for 15 minutes. […] Total activity was determined by reading the OD at 405 using Bio-Rad Benchmark Microplate Spectrophotometer.
sequence,measurement,setting,value
"RMPPGSCNGATAVFGNVHKKKKKKKKKKKKKKKK [peptide, Prototypical Avian reovirus fusogenic peptide with 16 lysine residues]",amount of lipid required to enhance transfection,"DMTS:DOPE 2:1 liposomes plus peptide, before or after protocol",reduced
same,effect of adding the peptide on transfection,"DMTS:DOPE 2:1 liposomes, peptide added to DNA before lipid, or to DNA/lipid complex",enhancement of transfection
